Measurements reported in PubChem BioAssay (NCI).
Where “and” joins values, the source holds several entries; their conditions need not be identical. Identical values can stand only once.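 Step 1: Grow cells in 96-well plates. Step 2: Expose to compound for 48 hours at 5 concentrations. Step 3: Interpolate endpoints linearly; if unreached, use highest concentration. At the GI50, growth is halved. TGI is the concentration that stops growth completely.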

Assays:
Experiment in all cases: DTP human tumour cell line panel, 48 h
HOP-18 NSCLC = tested on: HOP-18 NSCLC
RXF-631 renal = tested on: RXF-631 renal
DMS 273 small cell lung = tested on: DMS 273 small cell lung
XF 498 CNS = tested on: XF 498 CNS
T-47D breast = tested on: T-47D breast
MDA-N = tested on: MDA-N

Row | Structure (SMILES) | TGI (HOP-18 NSCLC) [µM] | TGI (RXF-631 renal) [µM] | TGI (DMS 273 small cell lung) [µM] | TGI (XF 498 CNS) [µM] | GI50 (T-47D breast) | TGI (T-47D breast) | TGI (MDA-N) [µM]
1 | COc1cc2c(cc1C)n(O)c(C)c(C(=O)C/C(=N/NC(=O)C[N+](C)(C)C)C(=O)Nc1cccc(Cl)c1C)[n+]2=O | > 100 | > 100 | > 100 | > 100 |  |  | 
2 | COc1cc(C2C(C#N)=C(N)OC3=C2C(=O)c2ccccc2C3=O)cc(OC)c1OC (stereo unspecified) |  |  |  |  | 3.72 µM | 20.4 µM | 
3 | COc1ccc2c(c1)CC[C@@H]1C2CC[C@]2(C)C(=O)NC(=O)CC12 (stereo partly specified) | > 100 |  | > 100 | > 100 |  |  | 
4 | Cc1cc(C)c(C(=O)OC(c2ccccc2)C(c2ccccc2)N2CCOCC2)c(C)c1 (stereo unspecified) | > 100 | > 100 | > 100 | > 100 |  |  | 
5 | Oc1ccccc1-n1c(-c2ccccc2)ccc1-c1ccccc1 |  |  |  |  | 4.12 µM | 32.9 µM | 
6 | O=C(/C=C/c1ccco1)Nc1ncc(Cc2ccc(F)cc2)s1 |  |  |  |  | 0.03 µM | > 100 µM | 
7 | CC(C)(C)CC(C)(C)c1ccc(OCCOCCSC(=N)N)cc1 |  |  |  |  | 1.68 µM | 3.54 µM | 
8 | O=[N+]([O-])c1ccc(Cl)c(C2SCc3nc4ccccc4n32)c1 (stereo unspecified) | 67.7 |  | > 100 |  |  |  | 
9 | CCC1(CN(C)C)CC/C(=C\c2ccc3c(c2)OCO3)C1=O (stereo unspecified) | > 100 | > 100 | > 100 |  |  |  | 
10 | CCOC(=O)C(C)(C)Oc1ccc2c(-c3ccc(Cl)cc3)cc(=O)oc2c1 |  | > 100 | > 100 |  |  |  | 
11 | CCOC(=O)C(C[Si](C)(C)C)P(=O)(OCC)OCC (stereo unspecified) |  | > 100 | > 100 | > 100 |  |  | 
12 | CC(=O)Oc1cccc2c1C(=O)c1c(OC(C)=O)cc(C)cc1C2=O |  |  |  |  |  | > 100 µM | > 100
13 | O=C1c2cc(CCl)sc2C(=O)c2ccsc21 | 0.797 |  | 1.12 | 3.1 |  | 0.562 µM | 0.0343
14 | O=C1/C(=C/c2cccs2)CCC/C1=C\c1cccs1 |  |  |  |  | 2.13 µM | > 72.8 µM | 
15 | C[Si](C)(C)/C=C/CN1C(=O)CCC1O (stereo unspecified) | > 100 |  | > 100 | > 100 |  |  | 
16 | CC1(C)OCN(c2ccc(Cl)cc2)Cn2c1nc1ccccc12 | > 100 |  | > 100 | > 100 |  | > 100 µM | > 100
17 | COc1ccc(/C=C2\N=C3SC=C(N)N3C2=O)cc1 |  |  |  |  | 0.334 µM | 14.9 µM | 
18 | COc1ccccc1-n1c(SCc2cc(OC)c(OC)c(OC)c2)nc2ccc(Cl)cc2c1=O |  |  |  |  | 4.95 µM | > 100 µM | 

Row | Structure (SMILES) | TGI (HOP-18 NSCLC) [µM] | TGI (RXF-631 renal) [µM] | TGI (DMS 273 small cell lung) [µM] | TGI (XF 498 CNS) [µM] | GI50 (T-47D breast) | TGI (T-47D breast) | TGI (MDA-N) [µM]
19 | CC/C=C\CCC/C=C1/C(=O)C=C[C@@H]1C/C=C\CCCC(=O)O |  |  |  |  | 10.1 µM | 23.3 µM | 
20 | COc1ccc(O)c2c1C(=O)CCCC2=O |  | > 100 | > 100 | > 100 |  |  | 
21 | CC(=O)Nc1ccc(-c2nnc(SCC(=O)Nc3ccc(C)cc3)o2)cc1 | 31.3 |  | 30.1 |  |  |  | 
22 | O=C(/C=C/c1cccc(Cl)c1)c1ccc(Cl)cc1Cl |  |  |  |  | 9.11 µM | 25.9 µM | 
23 | Oc1c(CN2CCCC2)cc(COCc2ccccc2)c2cccnc12 |  |  |  |  | 2.97 µM | 15.4 µM | 
24 | COc1ccc(/C=C\c2cc(OC)c(OC)c(OC)c2)c(NS(=O)(=O)c2ccc(C)cc2)c1O |  |  |  |  | 21 µM | > 100 µM | 
25 | CC(=O)OC1CCC2(C)C(=CC(C3C=C4CC(OC(C)=O)CCC4(C)C4=C3C3CC5OC6(CCC(C)CO6)C(C)C5C3(C)CC4)C3=C2CCC2(C)C3CC3OC4(CCC(C)CO4)C(C)C32)C1 (stereo unspecified) |  |  |  |  |  | 42.7 µM | 30.9
26 | COc1ccc2c3c(c(OCCCN(C)C)nc2c1)-c1ccc(Cl)cc1C3=O |  |  |  |  | 12.5 µM | 48.3 µM | 
27 | CC(C)C(N)(C(=O)O)c1ccccc1 (stereo unspecified) |  |  |  |  |  | > 100 µM | > 100
28 | Cn1c(=O)c2[nH]c(COc3ccc(C(C)(C)C)cc3)nc2n(C)c1=O |  |  |  |  | 11.9 µM | > 100 µM | 
29 | O=c1cccccc1NCCCCNc1cccccc1=O | > 100 | > 100 | > 100 |  |  |  | 
30 | Cc1nc(NC(=O)N2CCC[C@H]2C(N)=O)sc1-c1ccnc(C(C)(C)C(F)(F)F)c1 |  |  |  |  | 0.0412 µM and 0.0507 µM | 1.79 µM and 0.599 µM | 
31 | COc1ccc2c(c1)OC13Oc4cc(OC)ccc4C=C1CCCC3=C2 |  |  |  |  | 4.7 µM | > 100 µM | 
32 | CC[C@@H]1OC2(C)CC(S(=O)(=O)c3ccccc3)CC1O2 (stereo partly specified) | > 100 | > 100 | > 100 |  |  |  | 
33 | COc1cc(C2C(C(=O)Nc3ccccc3)=C(C)NC(C)=C2C(=O)Nc2ccccc2)ccc1O | > 100 |  |  | > 100 |  |  | 
34 | CN(C)c1ccc(/C=C/c2ccnc3ccccc23)cc1 |  |  |  |  | 2.57 µM | > 100 µM and 63.8 µM | 40.1
35 | O=c1c([Se]c2coc3ccccc3c2=O)coc2ccccc12 | 29.3 |  | 24 | 30.5 |  |  | 
36 | O=C(NNS(=O)(=O)c1cc(C(F)(F)F)cc(C(F)(F)F)c1)c1cnn(-c2ccc(Cl)cc2)c1C(F)(F)F |  |  |  |  | 17.5 µM | 45 µM | 
